{
  "source": "ChEMBL document CHEMBL3045984",
  "about": "“Resistance to HPPD-inhibiting herbicides in a population of waterhemp (Amaranthus tuberculatus) from Illinois, United States” (2011)",
  "key": {"[1]": {"test_system": "Amaranthus tuberculatus", "assay": "Resistance ratio of GR50 for Amaranthus tuberculatus biotype MCR to GR50 for Amaranthus tuberculatus biotype WCS", "type": "functional"}, "[2]": {"test_system": "Amaranthus tuberculatus", "assay": "Resistance ratio of GR50 for Amaranthus tuberculatus biotype MCR to GR50 for Amaranthus tuberculatus biotype ACR", "type": "functional"}},
  "data": [
    {"smiles": "CS(=O)(=O)c1ccc(C(=O)C2C(=O)CCCC2=O)c([N+](=O)[O-])c1", "note": "[MESOTRIONE]", "values": [
      {"measurement": "Ratio", "setting": "[1]", "value": 35},
      {"measurement": "Ratio", "setting": "[2]", "value": 10}
    ]}
  ]
}
